Results published in patent US11193136B2, “Cellulose synthase inhibitors and mutant plants” (VIB VZW, priority 2016, dated 2021).

Columns and labels:
[1] = tested on: wild type Arabidopsis (Col-0); test: Growth of Arabidopsis seedlings on half MS medium with C17 or analogues; format: in vivo; conditions: 200 nM
Protocol: (§1) C17 (5-(4-chlorophenyl)-7-(2-methoxyphenyl)-1,5,6,7-tetrahydro-[1,2,4]triazolo[1,5-a]pyrimidine; ChemDiv, Catalogue #: 7693622), a synthetic molecule, was identified from a chemical screen as a ploidy-inducing compound in Arabidopsis protoplasts. To test the effects of C17 on plants, Arabidopsis seeds were plated on half MS medium (Murashige, T. and F. Skoog, 1962) in the presence or absence of 200 nM C17 or its analogues. […] To dissect the C17 inhibitory effects, we employed confocal laser scanning microscopy (LSM710, ZEISS) to observe the root structure. Five-day-old Arabidopsis seedlings grown on vertical plates were transferred to half MS medium containing C17 for further growth. After three-day treatment, the root tips were analysed. Consistent to its growth inhibitory activity, C17 caused cell death at a concentration as little as 25 nM (FIG. 2). At the lowest concentration applied, root cortical cells of the transition zone were affected. This phenotype was aggravated and expanded to other tissues with an increasing dosage of C17 (FIG. 2).
(§2) For studying the growth inhibitory effects of C17 on plants, wild type and C17 resistant mutants were germinated on half MS medium (Murashige and Skoog, 1962) supplemented with or without indicated levels of C17 or its analogs. Seven-day-old seedlings were photographed. […]

Arabidopsis root = test: Root structure and cell death by propidium iodide staining and confocal microscopy; format: in vivo
Protocol: as §1, §2

[2] = tested on: ixr1-1, ixr1-2, and ixr2-1 mutants; test: Sensitivity of isoxaben resistant mutants to C17; format: in vivo, Arabidopsis; conditions: 200 nM C17, 3 days
Excerpt: To date, several cellulose synthase inhibitors have been reported. In terms of molecular structure, the C17 compound differs completely from any known cellulose inhibitor.
For studying the growth inhibitory effects of C17 on plants, wild type and C17 resistant mutants were germinated on half MS medium (Murashige and Skoog, 1962) supplemented with or without indicated levels of C17 or its analogs. Seven-day-old seedlings were photographed. For observation of the root structure, five-day-old Arabidopsis seedlings were transferred to half MS medium containing different dosages of C17. After a three-day treatment, seedlings were photographed and their root tips were stained with propidium iodide (PI), a fluorescent dye that is excluded from the membranes of healthy cells but penetrates the plasma membrane of dead cells. The stained root tips were visualized by confocal laser scanning microscopy (LSM710, ZEISS). The ixr1-1 (collection number CS6201), ixr1-2 (CS6202) and ixr2-1 (CS6203) mutants were acquired from the ABRC. Five-day-old Arabidopsis seedlings were transferred to half MS medium with or without 200 nM C17. After 3 day, the plants were photographed.

[3] = tested on: Arabidopsis root elongation zone; test: Detection of cell wall weakening by PI uptake under gentle pressure on the root; format: in vivo
Protocol: Because the cellulose synthesized by the CESA1/CESA3 complex is a primary cell wall component, it was expected that C17-treated plants would display a weaker cell wall, which can be visualized by the uptake of propidium iodide (PI) following the application of a gentle pressure on the root.
For the detection of cell wall weakening, 3-day-old seedlings grown on half-strength MS medium were transferred to liquid medium without or with 200 nM C17. The root tips were stained with […] mL^−1 prodium iodide for three min. The stained root tips were put on the Nunc™ Lab-Tek™ Chambered Coverglass (Catalog #155361) without pressure or microscope slide with cover slip that gave a gentle exerting of pressure. By using confocal laser scanning microscopy (LSM710, ZEISS), the brittle cells could be visualized by the uptake of PI.

COc1ccccc1C1CC(c2ccc(Cl)cc2)N=C2N=CNN21 (stereo not drawn) [C17, 5-(4-chlorophenyl)-7-(2-methoxyphenyl)-1,5,6,7-tetrahydro-[1,2,4]triazolo[1,5-a]pyrimidine]
effect on plant growth [1]: severe growth inhibition accompanied by radial swelling of the root tip | cell elongation phenotype (Arabidopsis root; 100 nM C17, three-day treatment): radical rather than polar cell elongation | concentration causing cell death in the root (Arabidopsis root; five-day-old seedlings, three-day treatment, lowest concentration applied): 25 nM | sensitivity of isoxaben resistant mutants (ixr1-1, ixr1-2, ixr2-1) [2]: still sensitive | PI uptake and growth inhibition in C17-tolerant mutants ([3]; 200 nM C17, C17-tolerant mutants): No PI-positive cells and growth inhibition | time to cell wall weakening in the root elongation zone ([3]; 200 nM C17, wild type, PI uptake): ≤ 2 h
